Assay results published in patent US20150105252A1, “SUBSTITUTED PYRAZOLES AS HERBICIDES” (E I DU PONT DE NEMOURS AND COMPANY, priority 2013, published 2015).

Tests used:
[1] = test system: galium; assay: Test D preemergence; assay type: in vivo, Galium aparine; conditions: scale 0 to 100
Outline: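 Preemergence: seeds sown in silt loam soil and sprayed with test chemical in non-phytotoxic solvent mixture with surfactant. Postemergence: plants grown in peat/vermiculite medium, sprayed at 2–18 cm (1- to 4-leaf stage). Visual rating versus untreated controls after 14–21 days, 0 (no effect) to 100 (complete control).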

[2] = test system: oilseed rape; assay: Test D postemergence; assay type: in vivo, Brassica napus; conditions: scale 0 to 100
Source text: Seeds of plant species selected from bluegrass (annual bluegrass, Poa annua), blackgrass (Alopecurus myosuroides), canarygrass (littleseed canarygrass, Phalaris minor), chickweed (common chickweed, Stellaria media), galium (catchweed bedstraw, Galium aparine), bromegrass, downy (downy bromegrass, Bromus tectorum), field poppy (Papaver rhoeas), field violet (Viola arvensis), foxtail, green (green foxtail, Setaria viridis), deadnettle (henbit deadnettle, Lamium amplexicaule), ryegrass, Italian (Italian ryegrass, Lolium multiflorum), kochia (Kochia scoparia), lambsquarters (Chenopodium album), oilseed rape (Brassica napus), pigweed (redroot pigweed, Amaranthus retroflexus), chamomile (scentless chamomile, Matricaria inodora), speedwell (bird's-eye speedwell, Veronica persica), barley, spring (spring barley, Hordeum vulgare), wheat, spring (spring wheat, Triticum aestivum), buckwheat, wild (wild buckwheat, Polygonum convolvulus), mustard, wild (wild mustard, Sinapis arvensis), oat, wild (wild oat, Avena fatua), radish, wild (wild radish, Raphanus raphanistrum), windgrass (Apera spica-venti), Russian thistle (Salsola kali), barley, winter (winter barley, Hordeum vulgare), and wheat, winter (winter wheat, Triticum aestivum) were planted into a silt loam soil and treated preemergence with test chemicals formulated in a non-phytotoxic solvent mixture which included a surfactant.
At the same time, these species were planted in pots containing Redi-Earth® planting medium (Scotts Company, 14111 Scottslawn Road, Marysville, Ohio 43041) comprising spaghnum peat moss, vermiculite, wetting agent and starter nutrients and treated with postemergence applications of the test chemicals formulated in the same manner. Plants ranged in height from 2 to 18 cm (1- to 4-leaf stage). Treated plants and controls were maintained in a controlled growth environment for 14 to 21 days after which time all species were compared to controls and visually evaluated. Plant response ratings, summarized in Table D, are based on a scale of 0 to 100 where 0 is no effect and 100 is complete control. A dash (-) response means no test result.

[3] = test system: wild poinsettia; assay: Test F preemergence; assay type: in vivo, Euphorbia heterophylla
Source text: (§1) Seeds of plant species selected from corn (Zea mays), soybean (Glycine max), velvetleaf (Abutilon theophrasti), lambsquarters (Chenopodium album), wild poinsettia (Euphorbia heterophylla), pigweed, palmer (palmer pigweed, Amaranthus palmeri), common waterhemp (Amaranthus rudis), surinam grass (Brachiaria decumbens), large crabgrass (Digitaria sanguinalis), crabgrass, Brazil (Brazilian crabgrass, Digitaria horizontalis), fall panicum (Panicum dichotomiflorum), giant foxtail (Setaria faberii), green foxtail (Setaria viridis), goosegrass (Eleusine indica), johnsongrass (Sorghum halepense), common ragweed (Ambrosia elation), barnyardgrass (Echinochloa crus-galli), southern sandbur (Cenchrus echinatus), arrowleaf sida (Sida rhombifolia), Italian ryegrass (Lolium multiflorum), dayflower, VA (Virginia (VA) dayflower, Commelina virginica), field bindweed (Convolvulus arvensis), cocklebur (common cocklebur, Xanthium strumarium), morningglory (Ipomoea coccinea), nightshade (eastern black nightshade, Solanum ptycanthum), kochia (Kochia scoparia), yellow nutsedge (Cyperus esculentus), and hairy beggarticks (Bidens pilosa), were planted into a silt loam soil and treated preemergence with test chemicals formulated in a non-phytotoxic solvent mixture which included a surfactant.
(§2) At the same time, plants from these crop and weed species and also horseweed (Canada horseweed, Conyza canadensis), smartweed (ladysthumb smartweed, Polygonum persicaria), waterhemp_RES1, (ALS & Triazine resistant common waterhemp, Amaranthus rudis), and waterhemp_RES2, (ALS & HPPD resistant common waterhemp, Amaranthus rudis) were treated with postemergence applications of test chemicals formulated in the same manner. Plants ranged in height from 2 to 18 cm for postemergence treatments (1- to 4-leaf stage). Treated plants and controls were maintained in a greenhouse for 14 to 21 days, after which time all species were compared to controls and visually evaluated. Plant response ratings, summarized in Table F, are based on a scale of 0 to 100 where 0 is no effect and 100 is complete control. A dash (-) response means no test result.

[4] = test system: field bindweed; assay: Test F preemergence; assay type: in vivo, Convolvulus arvensis
Outline: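 Visual rating 0–100 vs untreated controls (0 = no effect, 100 = complete control) after 14–21 d greenhouse. Pre: seeds in silt loam soil. Post: plants 2–18 cm, 1–4 leaf. Formulation: non-phytotoxic solvent mix + surfactant.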

[5] = test system: morningglory; assay: Test F preemergence; assay type: in vivo, Ipomoea coccinea
Source text: as §1, §2

[6] = test system: nightshade; assay: Test F preemergence; assay type: in vivo, Solanum ptycanthum
Source text: as §1, §2

[7] = test system: horseweed; assay: Test F postemergence; assay type: in vivo, Conyza canadensis; conditions: scale 0 to 100
Source text: as §1, §2

[8] = test system: kochia; assay: Test A postemergence; assay type: in vivo, Kochia scoparia
Outline: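 Seeds were sown in a loam soil–sand blend and given a directed soil spray preemergence; postemergence plants at 2–10 cm, one- to two-leaf stage, were sprayed with compound in non-phytotoxic solvent with surfactant. After about 10 days in a greenhouse, injury was visually rated against untreated controls (0 = no effect, 100 = complete control).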

[9] = Preemergence, 31 g ai/ha, scale 0 to 100
[10] = Preemergence, 62 g ai/ha, scale 0 to 100
[11] = Preemergence, 125 g ai/ha, scale 0 to 100
[12] = preemergence, 8 g ai/ha, scale 0 to 100, 100 is complete control
[13] = preemergence, 16 g ai/ha, scale 0 to 100, 100 is complete control
[14] = Postemergence, 500 g ai/ha, 0 to 100 scale (0 no effect, 100 complete control)
[15] = postemergence, 125 g ai/ha, about 10 days, visual rating on 0 to 100 scale (0 no effect, 100 complete control)
[16] = Preemergence, 16 g ai/ha, scale 0 to 100

| Structure (SMILES) | Plant response rating, Galium ([1]; 62 g ai/ha) | Plant response rating, Galium ([1]; 125 g ai/ha) | Plant response rating, Galium ([1]; 250 g ai/ha) | Oilseed Rape plant response rating ([2]; Postemergence, 31 g ai/ha) | Oilseed Rape plant response rating ([2]; Postemergence, 125 g ai/ha) | Oilseed Rape plant response rating ([2]; Postemergence, 250 g ai/ha) | Oilseed Rape plant response rating ([2]; postemergence, 62 g ai/ha) | Plant response rating, Wild Poinsettia [3, 10] | Plant response rating, Wild Poinsettia [3, 11] | Plant response rating, Wild Poinsettia [3, 12] | Plant response rating, Field Bindweed [4, 10] | Plant response rating, Field Bindweed [4, 11] | Plant response rating, Field Bindweed [4, 12] | Plant response rating, Morningglory [5, 10] | Plant response rating, Morningglory [5, 11] | Plant response rating, Morningglory [5, 12] | Plant response rating, Nightshade [6, 10] | Plant response rating, Nightshade [6, 11] | Plant response rating, Nightshade [6, 12] | Plant response rating, Horseweed ([7]; Postemergence, 31 g ai/ha) | other results |
| --- | --- | --- | --- | --- | --- | --- | --- | --- | --- | --- | --- | --- | --- | --- | --- | --- | --- | --- | --- | --- | --- |
| CCc1cc(C(=O)NCC(F)(F)F)nn1Cc1ccnc(C(F)(F)F)c1 [Compound 78, 5-ethyl-N-(2,2,2-trifluoroethyl)-1-[[(2-trifluoromethyl)-4-pyridinyl]methyl]-1H-pyrazole-3-carboxamide] | 100 | 100 | 100 | 35 | 60 | 80 | 50 | 65 | 98 | 0 | 90 | 95 | 0 | 90 | 100 | 0 | 98 | 98 | 0 | 25 | Plant response rating, Galium ([1]; 31 g ai/ha): 95; Plant response rating, Wild Poinsettia [3, 9]: 50; Plant response rating, Wild Poinsettia [3, 13]: 0; Plant response rating, Field Bindweed [4, 9]: 100; Plant response rating, Field Bindweed [4, 13]: 0; Plant response rating, Morningglory [5, 9]: 100; Plant response rating, Morningglory [5, 13]: 40; Plant response rating, Nightshade [6, 9]: 95; Plant response rating, Nightshade [6, 13]: 60; Plant response rating, Horseweed ([7]; Postemergence, 125 g ai/ha): 40; Plant response rating, Horseweed ([7]; Postemergence, 250 g ai/ha): 50; Plant response rating, Horseweed ([7]; postemergence, 62 g ai/ha): 30; Plant response rating, Horseweed ([7]; postemergence, 500 g ai/ha): 75 |
| CCCc1cc(C(=O)NCC(F)(F)F)nn1Cc1ccnc(C(F)(F)F)c1 [Compound 105] | 100 | 100 | 100 | 40 | 70 | 85 | 60 | 60 | 95 | 0 | 40 | 100 | 0 | 90 | 95 | 20 | 100 | 100 | 0 | 20 | Plant response rating, Galium ([1]; 31 g ai/ha): 100; Plant response rating, Wild Poinsettia [3, 9]: 5; Plant response rating, Wild Poinsettia [3, 13]: 0; Plant response rating, Field Bindweed [4, 9]: 75; Plant response rating, Field Bindweed [4, 13]: 10; Plant response rating, Morningglory [5, 9]: 25; Plant response rating, Morningglory [5, 13]: 25; Plant response rating, Nightshade [6, 9]: 70; Plant response rating, Nightshade [6, 13]: 65; Plant response rating, Horseweed ([7]; Postemergence, 125 g ai/ha): 35; Plant response rating, Horseweed ([7]; Postemergence, 250 g ai/ha): 50; Plant response rating, Horseweed ([7]; postemergence, 62 g ai/ha): 25; Plant response rating, Horseweed ([7]; postemergence, 500 g ai/ha): 70 |
| CCONC(=O)c1cc(CC)n(Cc2cc(C(F)(F)F)no2)n1 [Compound 125] | – | – | – | – | – | – | – | – | – | – | – | – | – | – | – | – | – | – | – | – | Kochia plant response rating [8, 14]: 90; Kochia plant response rating [8, 15]: 60 |
| CCOc1cc(C(=O)NC2CC2)nn1Cc1ccnc(OC(F)F)c1 [Compound 133] | – | – | – | – | – | – | – | – | – | – | – | – | – | – | – | – | – | – | – | – | Kochia plant response rating [8, 14]: 100; Kochia plant response rating [8, 15]: 90 |
| CCOc1cc(C(=O)NC(C)C)nn1Cc1ccnc(C(F)(F)F)c1 [Compound 188] | 95 | 100 | 100 | 55 | 55 | 70 | 55 | 100 | 100 | 10 | 40 | 100 | 35 | 70 | 100 | 65 | 95 | 98 | 0 | 20 | Plant response rating, Field Bindweed [4, 16]: 30; Plant response rating, Morningglory [5, 16]: 30; Plant response rating, Nightshade [6, 16]: 98; Plant response rating, Horseweed ([7]; Postemergence, 125 g ai/ha): 30; Plant response rating, Horseweed ([7]; Postemergence, 250 g ai/ha): 40; Plant response rating, Horseweed ([7]; postemergence, 62 g ai/ha): 30; Plant response rating, Horseweed ([7]; postemergence, 500 g ai/ha): 50 |
| CCc1cc(C(=O)NCC(F)(F)F)nn1Cc1cc(OC(F)F)nn1C [Compound 206] | – | – | – | – | – | – | – | – | – | – | – | – | – | – | – | – | – | – | – | – | Kochia plant response rating ([8]; Postemergence, 125 g ai/ha, 0 to 100 scale, 0 no effect, 100 complete control): 80; Kochia plant response rating [8, 14]: 90 |
